Article PMC9709915, “A Single Point Mutation Blocks the Entrance of Ligands to the Cannabinoid CB2 Receptor via the Lipid Bilayer” (Journal of Chemical Information and Modeling, 2022)

Legend:
Assay in all cases: inhibition of forskolin-stimulated cAMP, Lance-Ultra cAMP kit, HTRF
Assay type in all cases: cell-based
CB2R (hCB2R) [1] = biological target: T1, CB2R (hCB2R) (Homo sapiens, UniProt P34972, A282M)
T1 construct: gene CNR2; full-length hCB2R cDNA in pcDNA3.1, transiently expressed in HEK-293T cells; no tag mentioned
T1 sequence (P34972 whole entry A282M): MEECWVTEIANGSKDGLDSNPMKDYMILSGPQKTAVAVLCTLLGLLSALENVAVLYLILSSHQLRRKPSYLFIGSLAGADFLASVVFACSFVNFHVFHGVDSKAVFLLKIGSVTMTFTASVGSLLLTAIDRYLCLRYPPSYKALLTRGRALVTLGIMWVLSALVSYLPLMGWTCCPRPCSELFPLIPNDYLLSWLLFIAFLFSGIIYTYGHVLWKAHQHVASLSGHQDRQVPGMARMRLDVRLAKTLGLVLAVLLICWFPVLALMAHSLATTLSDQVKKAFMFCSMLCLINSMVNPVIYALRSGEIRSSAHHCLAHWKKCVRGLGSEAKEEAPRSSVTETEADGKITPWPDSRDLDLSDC
Text: (§1) inhibition of forskolin-stimulated cAMP, Lance-Ultra cAMP kit, HTRF on CB2R (hCB2R)

CB2R (hCB2R) [2] = biological target: T2, CB2R (hCB2R) (Homo sapiens, UniProt P34972, V36F)
T2 construct: gene CNR2; full-length hCB2R cDNA in pcDNA3.1, transiently expressed in HEK-293T cells; no tag mentioned
T2 sequence (P34972 whole entry V36F): as the sequence (P34972 whole entry A282M) above, with V36F, M282A counted along it
Text: as §1

CB2R (hCB2R) [3] = biological target: T3, CB2R (hCB2R) (Homo sapiens, UniProt P34972)
T3 construct: gene CNR2; full-length hCB2R cDNA in pcDNA3.1, transiently expressed in HEK-293T cells; no tag mentioned
T3 sequence (P34972 whole entry): as the sequence (P34972 whole entry A282M) above, with M282A counted along it
Text: as §1

CB2R (hCB2R) [4] = biological target: T4, CB2R (hCB2R) (Homo sapiens, UniProt P34972, A282F)
T4 construct: gene CNR2; full-length hCB2R cDNA in pcDNA3.1, transiently expressed in HEK-293T cells; no tag mentioned
T4 sequence (P34972 whole entry A282F): as the sequence (P34972 whole entry A282M) above, with M282F counted along it
Text: as §1

CB2R (hCB2R) [5] = biological target: T5, CB2R (hCB2R) (Homo sapiens, UniProt P34972, V36M)
T5 construct: gene CNR2; full-length hCB2R cDNA in pcDNA3.1, transiently expressed in HEK-293T cells; no tag mentioned
T5 sequence (P34972 whole entry V36M): as the sequence (P34972 whole entry A282M) above, with V36M, M282A counted along it
Text: as §1

Question: `CCCC(C)(C)c1ccc2c(c1)OC(C)(C)[C@@H]1CC=C(C)C[C@@H]21` [JWH-133] was tested. Which EC50 (CB2R (hCB2R) [1]) did it give?
Answer: 15.8 nM

Question: What about the EC50 (CB2R (hCB2R) [2]) of the same compound?
Answer: 158 nM

Question: What about the EC50 (CB2R (hCB2R) [3]) of the same compound?
Answer: 31.6 nM

Question: What about the EC50 (CB2R (hCB2R) [4]) of the same compound?
Answer: 316 nM

Question: And the EC50 (CB2R (hCB2R) [5])?
Answer: 12.6 nM
